# Experimental data published in article PMC7893776, “Selecting an anti-malarial clinical candidate from two potent dihydroisoquinolones” (Malaria Journal, 2021).
# Like-named read-outs stand apart in the source and are kept apart here. Marks after values point to notes of the source that are not given here.
# Legend:
# [1] = parameters: method as in PMID 31898492; settings: human whole blood; cited from earlier work
# [2] = pKa by potentiometric titration; type: physicochemical
# Experimental: Octanol/pH 7.4 buffer partitioning experiments were conducted using a shake flask method, and pKa was assessed by potentiometric titration. Both methods have been described previously.
# [3] = parameters: method as in PMID 31898492; settings: octanol/pH 7.4 buffer, averaged from high and low concentration partition samples; cited from earlier work
# [4] = parameters: method as in earlier work; settings: 6 h, cited from earlier work
# [5] = tested on: recombinant human CYP1A1, 1A2, 1B1, 2B6, 2C8, 2C9, 2C19, 2D6, 3A4; test: Recombinant human cytochrome P450 (rhCYP) metabolism; type: in vitro ADME
# Experimental: SJ733 was first pre-incubated with Bactosomes™ (Cypex Ltd, final P450 concentration: CYP1A1 25 pmol/mL, CYP1A2 100 pmol/mL,CYP1B1 100 pmol/mL, CYP2B6 100 pmol/mL, CYP2C8 50 pmol/mL, CYP2C9, 25 pmol/mL, CYP2C19 100 pmol/mL, CYP2D6 50 pmol/mL and CYP3A4 25 pmol/mL, 0.1 M phosphate buffer pH 7.4) at 37 °C prior to the addition of NADPH (final concentration 1 mM) to initiate the reaction with a final incubation volume of 50 μL. Incubations were also performed using control Bactosomes™ (no P450 enzymes present) to reveal any non-enzymatic degradation. Control compounds known to be metabolized specifically by each P450 isoform were included individually. Test articles and controls were incubated with each isoform for 0, 5, 15, 30, and 45 min. The reactions were stopped by transferring 20 μL of the reaction mixture to 60 μL methanol at the appropriate timepoints.
compound,measurement,setting,value
N#Cc1cc(NC(=O)C2c3ccccc3C(=O)N(CC(F)(F)F)C2c2cccnc2)ccc1F (racemic) [(r)-SJ733],B/P ratio,[1],0.72 ± 0.02^b
N#Cc1cc(NC(=O)C2c3ccccc3C(=O)N(CC(F)(F)F)C2c2cn[nH]c2)ccc1F (racemic) [(r)-SJ311],pKa,[2],11.1 ± 0.3
N#Cc1cc(NC(=O)[C@H]2c3ccccc3C(=O)N(CC(F)(F)F)[C@@H]2c2cccnc2)ccc1F [(+)-SJ733],LogD (7.4) Shake flask,[3],"3.90 ± 0.01^a,b"
same,Solubility,"[4]; FaSSIF-V2 pH 6.5, 37°C",216^b µM
same,Solubility,"[4]; FeSSIF-V2 pH 5.8, 37°C",254^b µM
same,Solubility,"[4]; Phosphate buffer pH 7.4, 37°C",246^b µM
N#Cc1cc(NC(=O)[C@H]2c3ccccc3C(=O)N(CC(F)(F)F)[C@@H]2c2cccnc2)ccc1F (racemic) [SJ733],formation of metabolites,"[5]; incubation with CYP1A1, 1A2, 1B1, 2B6, 2C9, or 2C19 recombinant enzymes",no detectable formation of metabolites
same,formation of metabolites,"[5]; incubations with CYP2C8, 2D6, and 3A4 recombinant enzymes",Metabolite formation was only observed
